# Reference: PubChem BioAssay (NCI)
#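 All cell lines were grown in 96-well plates and treated with compound for 48 hours. TGI: concentration producing complete growth inhibition.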
# Experiments:
# Experiment in all cases: NCI anticancer screen, dose series, 48 h
# [1] = test system: SF-268 CNS
# [2] = test system: OVCAR-3 ovarian
# [3] = test system: HS 578T breast
# [4] = test system: MOLT-4 leukemia
# [5] = test system: SF-295 CNS
# [6] = test system: NCI/ADR-RES ovarian
# [7] = test system: MDA-MB-435
# [8] = test system: SNB-19 CNS
# [9] = test system: NCI-H522 lung
# [10] = test system: MALME-3M melanoma
# [11] = test system: T-47D breast
# [12] = test system: MDA-MB-231 breast
# [13] = test system: HCT-15 colon
# [14] = test system: HOP-62 NSCLC
# [15] = test system: HCT-116 colon
# [16] = test system: OVCAR-5 ovarian
# [17] = test system: SK-MEL-5 melanoma
# [18] = test system: OVCAR-8 ovarian
# [19] = test system: MCF7 breast
# [20] = test system: HT29 colon
# [21] = test system: IGROV1 ovarian
# [22] = test system: SW-620 colon
# [23] = test system: NCI-H23 lung
# [24] = test system: KM12 colon
# [25] = test system: A549 NSCLC
# [26] = test system: UACC-62 melanoma
# [27] = test system: DU-145 prostate
# [28] = test system: SN12C renal
# [29] = test system: M14 melanoma
# [30] = test system: SNB-75 CNS
# [31] = test system: RXF 393 renal
# [32] = test system: UACC-257 melanoma
# [33] = test system: BT-549 breast
# [34] = test system: PC-3 prostate
# [35] = test system: COLO 205 colon
# [36] = test system: RPMI-8226 leukemia
# [37] = test system: MDA-N
# [38] = test system: NCI-H226 lung
# [39] = test system: SK-MEL-2 melanoma
# [40] = test system: UO-31 renal
# [41] = test system: U251 CNS
# [42] = test system: SF-539 CNS
# [43] = test system: SK-MEL-28 melanoma
# [44] = test system: EKVX NSCLC
# [45] = test system: LOX IMVI melanoma
# [46] = test system: ACHN renal
# [47] = test system: HOP-92 NSCLC
# [48] = test system: NCI-H460 lung
# [49] = test system: TK-10 renal
# [50] = test system: SK-OV-3 ovarian
# [51] = test system: OVCAR-4 ovarian
# [52] = test system: HCC-2998 colon
# [53] = test system: CAKI-1 renal
# [54] = test system: K-562 leukemia
# [55] = test system: SR leukemia
# [56] = test system: 786-0 renal
# [57] = test system: HL-60(TB) leukemia
# [58] = test system: A498 renal
compound,measurement,setting,value
Oc1c(C(O)(c2ccccc2)c2ccc3ccccc3c2O)ccc2ccccc12,TGI,[1],28.4 µM
same,TGI,[2],30.8 µM
same,TGI,[3],27.8 µM
same,TGI,[4],5.56 µM
same,TGI,[5],47.9 µM
same,TGI,[6],43.1 µM
same,TGI,[7],40.6 µM
same,TGI,[8],28.7 µM
same,TGI,[9],16.5 µM
same,TGI,[10],26.4 µM
same,TGI,[11],32.5 µM
same,TGI,[12],33.6 µM
same,TGI,[13],25.9 µM
same,TGI,[14],35.6 µM
same,TGI,[15],21.8 µM
same,TGI,[16],38.3 µM
same,TGI,[17],18 µM
same,TGI,[18],29.7 µM
same,TGI,[19],24 µM
same,TGI,[20],33 µM
same,TGI,[21],24.7 µM
same,TGI,[22],41.8 µM
same,TGI,[23],23.1 µM
same,TGI,[24],25.4 µM
same,TGI,[25],30.4 µM
same,TGI,[26],22.8 µM
same,TGI,[27],34.6 µM
same,TGI,[28],23.1 µM
same,TGI,[29],31 µM
same,TGI,[30],34.5 µM
same,TGI,[31],25.3 µM
same,TGI,[32],23.4 µM
same,TGI,[33],42.3 µM
same,TGI,[34],20.7 µM
same,TGI,[35],31.9 µM
same,TGI,[36],5.32 µM
same,TGI,[37],28.5 µM
same,TGI,[38],36.5 µM
same,TGI,[39],26.4 µM
same,TGI,[40],24.7 µM
same,TGI,[41],21.8 µM
same,TGI,[42],36.1 µM
same,TGI,[43],33.3 µM
same,TGI,[44],50.7 µM
same,TGI,[45],31.3 µM
same,TGI,[46],23.3 µM
same,TGI,[47],24.1 µM
same,TGI,[48],22.3 µM
same,TGI,[49],26.8 µM
same,TGI,[50],38.3 µM
same,TGI,[51],> 47.8 µM
same,TGI,[52],20 µM
same,TGI,[53],33.8 µM
same,TGI,[54],15.7 µM
same,TGI,[55],10.7 µM
same,TGI,[56],> 69 µM
same,TGI,[57],13.9 µM
same,TGI,[58],30.6 µM
